Assay results: article PMC6207338 (Nature medicine, 2018)
Where a chain is given by its changes, count along the chain named. Where two headings read alike, the source gives them in different places.

Assays:
mouse FBP1 (WT) = target: T1, mouse FBP1 (WT) (Mus musculus, UniProt Q9QXD6); experiment: FBPase coupled assay, recombinant mouse FBP1 WT; type: biochemical
T1 sequence (Q9QXD6 1-338): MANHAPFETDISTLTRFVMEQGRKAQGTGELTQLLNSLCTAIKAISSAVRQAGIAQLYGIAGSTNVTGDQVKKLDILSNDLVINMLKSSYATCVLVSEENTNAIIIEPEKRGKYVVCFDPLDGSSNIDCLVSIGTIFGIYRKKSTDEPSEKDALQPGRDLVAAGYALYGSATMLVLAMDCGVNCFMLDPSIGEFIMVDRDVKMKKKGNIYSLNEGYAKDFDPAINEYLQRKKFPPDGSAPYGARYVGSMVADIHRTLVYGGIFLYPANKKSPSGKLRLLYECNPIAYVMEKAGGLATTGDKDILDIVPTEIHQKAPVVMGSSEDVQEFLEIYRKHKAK

mouse FBP1 Y114F = target: T2, mouse FBP1 Y114F (Mus musculus, UniProt Q9QXD6, Y114F); experiment: FBPase coupled assay, mouse FBP1 Y114F; type: biochemical; settings: untagged Y114F, data not shown
T2 sequence (Q9QXD6 1-338 Y114F): T1 sequence (Q9QXD6 1-338) with Y114F

glucose production = settings: i.v. infusion; cited from earlier work
[1] = test system: gastrocnemius (GAS) muscle; experiment: Skeletal muscle adenine/Z nucleotides after AICAR; type: in vivo, mouse; settings: following AICAR treatment
[2] = test system: FBP1^WT/WT (WT) and FBP1^G27P/G27P (KI) mice; experiment: AICAR tolerance in mice; type: in vivo, mouse; settings: 250 mg.kg^-1 i.p.
AMPK = AMPK activation in tissue by Western blotting / kinase assay; type: in vivo, mouse
[11C]-metformin microPET = type: in vivo, mouse; settings: acute intravenous [11C]-metformin, WT vs KI mice
in vivo = settings: mouse, plasma, po, 250 mg.kg^-1
HFD-fed WT and KI mice = experiment: Metformin in high-fat diet; settings: 250 mg.kg^-1 p.o., 2 h
[3] = test system: FBP1^WT/WT (WT) and FBP1^G27P/G27P (KI) mice; experiment: Metformin-euglycemic clamp; type: in vivo, mouse
mouse liver = experiment: Liver adenine/Z nucleotides and metabolites after drug treatment; type: in vivo; settings: 250 mg.kg^-1 p.o.
rabbit muscle AMPD1 = experiment: AMPD1 assay; type: biochemical; settings: rabbit muscle AMPD1, up to 10 mM
[4] = Metformin assay in plasma and tissues
[5] = rats, cited from earlier work
[6] = random blood samples from diabetic subjects; cited from earlier work
isolated hepatocytes = settings: lactate and pyruvate as sole carbon sources, 1 mM; cited from earlier work
[7] = end of clamp, 1.875 mg.kg^-1.min^-1 i.v.

With `CC(C)Cc1sc(N)nc1-c1ccc(P(=O)(O)O)o1` [MB05032, 2-amino-5-isobutyl-4-[5-phosphono-2-furanyl]thiazole] the “fold less sensitive, mouse FBP1 compared to rat FBP1” value (mouse FBP1 (WT); recombinant, in vitro) was ~ 2 fold.

For `O=P(O)(O)OC[C@H]1O[C@@](CO)(OP(=O)(O)O)[C@@H](O)[C@@H]1O` [F-2,6-P2, fructose-2,6-bisphosphate], the “IC50 for F-2,6-P2” value (mouse FBP1 Y114F) was “increased IC50”.

For `N#Cc1c(O)c2c(-c3ccc(-c4ccccc4O)cc3)csc2[nH]c1=O` [A769662], the “effect on glucose production” value (glucose production) is listed as “no effect on glucose production”.

For `NC(=O)c1ncn([C@@H]2O[C@H](CO)[C@@H](O)[C@H]2O)c1N` [AICAR, 5-aminoimidazole-4-carboxamide-1-β-D-ribofuranoside], the “ZMP concentration in skeletal muscle, fold less compared to liver” value [1] was over 50 fold, the “[ZMP]:[ATP] ratio in skeletal muscle, fold less compared to liver” value [1] was over 150 fold and the blood lactate levels ([2]; KI mice, t = 60 min) was “only modestly”. For the same compound, the plasma insulin levels ([2]; WT and KI mice, t = 60 min) was “no significant change”, the “decrease in blood glucose levels” value ([2]; WT mice, fasted 16 h) was ~ 60% and the blood lactate levels ([2]; WT mice, t = 60 min) was “marked increase”. The plasma glucagon levels ([2]; WT mice, t = 60 min) was “increased”, the “phosphorylation of liver AMPK and ACC” value (AMPK; liver, WT and KI mice, AICAR 250 mg.kg^-1 i.p., 60 min) was “robustly stimulated” and the “AMPKα T172 phosphorylation and activity in skeletal muscle” value (AMPK; skeletal muscle, both genotypes, AICAR 250 mg.kg^-1 i.p., 60 min) was “failed to increase”.

With `CN([11CH3])C(=N)N=C(N)N` [[^11C]-metformin] the “kinetics and total metformin uptake in liver (PET)” value ([11C]-metformin microPET) was “comparable between WT and KI mice”.

For `CN(C)C(=N)N=C(N)N` [metformin, N,N-dimethylbiguanide], the concentration at 1 h (in vivo) was 125 to 150 µM, the “direct inhibitory effect on FBP1” value (mouse FBP1 (WT); purified mouse FBP1, up to 10 mM) was “does not have a direct inhibitory effect on FBP1 up to 10 mM” and the “decrease of blood glucose” value (HFD-fed WT and KI mice; HFD-fed KI mice) was ~ 10%. The “reduction of blood glucose levels” value (HFD-fed WT and KI mice; HFD-fed WT mice) was 30-40%, the “glucose infusion rate (GIR)” value ([3]; 1.875 mg.kg^-1.min^-1 i.v., WT (and also KI) mice) was “failed to increase GIR significantly from baseline” and the “suppression of EndoRa, gluconeogenesis and glycogenolysis” value ([3]; 3.75 mg.kg^-1.min^-1 i.v., KI mice) was “ablated”. The “glucose infusion rate (GIR)” value ([3]; 3.75 mg.kg^-1.min^-1 i.v., KI mice, 120 min clamp) was “only a modest increase in GIR”, the “suppression of endogenous glucose production (EndoRa)” value ([3]; 3.75 mg.kg^-1.min^-1 i.v., WT mice) was ~ 20% and the “glucose infusion rate (GIR)” value ([3]; 3.75 mg.kg^-1.min^-1 i.v., WT mice, 120 min clamp) was “substantial increase in GIR”. The “increase in glucose disposal rate (Rd)” value ([3]; 3.75 mg.kg^-1.min^-1 i.v., both WT and KI) was 40-50%, the “decrease in hepatic energy charge” value (mouse liver; both genotypes) was ~ 10% and the “increase in hepatic [AMP]:[ATP]” value (mouse liver; both genotypes) was ~ 2 fold. The “hepatic cAMP” value (mouse liver; HFD-fed mice, 2 h) was “no significant effect”, the “inhibition of AMP deaminase 1 (AMPD1)” value (rabbit muscle AMPD1) was “Neither does it appear to inhibit” and the liver metformin level ([4]; 250 mg.kg^-1 p.o., 1 h, comparable between genotypes) was ~ 0.7 μmol.g^-1. For the same compound, the liver metformin [4, 7] was ~ 0.8 μmol.g^-1, the plasma metformin [4, 7] was ~ 170 μM and the “phosphorylation of liver AMPK and ACC” value (AMPK; mouse, in vivo, po) was “robust increase”. For the same compound, the plasma metformin concentration ([5]; 50 mg.kg^-1 intravenously, 30 min after administration) was ~ 74 μM, the plasma metformin concentration ([5]; 100 mg.kg^-1) was 345 µM and the plasma metformin concentration ([5]; 250 mg.kg^-1) was 1300 µM. For the same compound, the “plasma metformin levels, upper end of range” value [6] was 868 µM and the “reduction in intracellular ATP concentration” value (isolated hepatocytes) was ~ 85%.
